The values that follow come from patent publication US10543284B2, “Anti-c-Met antibody and anti-c-Met antibody-cytotoxic drug conjugate and pharmaceutical use thereof” (Suzhou Suncadia Biopharmaceuticals Co., Ltd., priority 2015, dated 2020).

Like-named read-outs stand apart in the source and are kept apart here. *1 amine or outer side, *2 acyl side, *3 side chain or, on linkers, in order; H or OH if unused. Where a SMILES comes first, the peptide text is derived from it. [ ]: non-standard residue; d: D form. X1 = CO[C@H]([C@@H](C)C(=O)[*:2])[C@@H]1C[C@@H]2C[C@@H]2N1[*:1]; Dolaproine = CO[C@@H]([C@@H]1CCCN1)[C@@H](C)C(=O)O; Dil = CC[C@H](C)[C@H](NC)[C@@H](CC(=O)O)OC; Phe(2-F) = N[C@@H](Cc1ccccc1F)C(=O)O; NMeV = CN[C@H](C(=O)O)C(C)C

One experiment has as its system MKN45 cell. Nature of the experiment: ATP cytotoxicity test (CellTiter-Glo, 72 hours) in MKN45. The experiment is classed as cell-based, human. Here is the method:
In order to assess the toxic effects of the ADC molecules of the present invention on cells, the ATP toxicity test was performed. ATP is an indicator of the metabolism of living cells, and the detection of ATP can reflect the effect of the toxicity of molecules on cells.
HepG2 cells (Chinese Academy of Sciences cell bank, Cat # TCHu 72) were cultivated in EMEM complete medium containing 10% FBS, and MKN45 cells were cultivated in RPMI1640 complete medium containing 10% FBS. Trypsinization was performed for 2-3 min by adding 2-3 ml trypsin, 10-15 ml complete medium was added to elute the trypsinized cells when the trypsinization was complete, and the cells were centrifuged at 1000 rpm for 3 min. The supernatant was discarded, 10-20 ml complete medium was added to resuspend the cells to obtain a single cell suspension, and the cell density was adjusted to 4×10^4 cells/ml. 0.1 ml of the above cell suspension was added to each well of a 96-well cell culture plate and cultivated in an incubator at 37° C. in 5% CO2. […] The chemiluminescence was measured by a microplate reader (VICTOR 3, PerkinElmer), and the result was analyzed by GraphPad Prism (version 5.0) software.

The subject of a further experiment is HepG2 cell. Nature of the experiment: ATP cytotoxicity test (CellTiter-Glo, 72 hours) in HepG2. The experiment is classed as cell-based, human.
The subject of experiment [1] is a variety of human tumor cell lines. As to conditions: cited from earlier work.
The target in another experiment is T1, human c-Met-His (Homo sapiens, UniProt P08581).
T1 construct: His (C); made in house; host or cells: 293F cells
Kind of experiment: ELISA binding of c-Met antibody to c-Met antigen. As to conditions: hybridoma fusion clones, ELISA read at 450 nm. Here is the method: This experiment uses enzyme linked immunosorbent assay (ELISA) to detect affinity of c-Met antibody to c-Met antigen in vitro (including supernatant of hybridoma or recombinantly expressed monoclonal antibodies).
Experimental procedures: Coating buffer (PBS; Hyclone, Cat No.: SH30256.01B) was used to dilute antigen (human c-Met-His, example 1) to 2 μg/ml, which was added to 96-well plate with 100 μl/well (Costar 9018, Cat No.: 03113024) and incubated overnight at 4′C. […] The plate was read with plate reader at 450 nm.
After immunization, mice with a serum titer higher than 1:10^5 were selected for fusion. Mouse B-cells and myeloma cells (SP2/0, ATCC number: CRL-1581™) were prepared respectively in aseptic conditions and counted. […] The next day, positive clones were detected by ELISA (see Methods in Example 2).

The test system of the next experiment is MKN45 cells. Kind of experiment: Inhibition of proliferation of MKN45 gastric cancer cells (CellTiter-Glo, 5 days). As to conditions: monoclone culture supernatant, 5 days. Type of experiment: cell-based, human. From the text:
The clones above were selected and further cultured to obtain monoclones. After verification of binding activity by ELISA, monoclones were selected for cultivation, and the resulting supernatant was subjected to a cell viability assay. According to the experiment principle, anti-human c-Met antibodies of the invention are able to inhibit phosphorylation of c-Met expressed on the surface of human gastric cancer cell line MKN45, thereby inhibiting the proliferation of MNK45 cells.
Human gastric cancer cells (MKN45, JCRB, JCRB0254, P11) were added to a 96-well cell culture plate (costar, #3799) at 1×10^5 cells/mL and 50 μl/well. The medium was RPMI1640 medium: (GIBCO, cat #11835)+10% FBS (GIBCO-10099141). Anti-human c-Met antibodies to be tested were added at 50 μl/well, and the plate was cultured for 5 days in incubator at 37′C (Manufacture: SANYO; Equipment No. TINC035). CellTiter-Glo® Luminescent Cell Viability Assay (Promega, G7573) was used, and the proliferation of cells was detected according to the instructions. The plate was read by a PerkinElmer plate reader, TREA001-RDA-IBA100. The following formula was used to calculate the percentage proliferation of cells: % proliferation of cells=(1−cell reads in experimental group/cell reads in untreated group)×100%.

T1 sequence (P08581 25-932 limits assumed): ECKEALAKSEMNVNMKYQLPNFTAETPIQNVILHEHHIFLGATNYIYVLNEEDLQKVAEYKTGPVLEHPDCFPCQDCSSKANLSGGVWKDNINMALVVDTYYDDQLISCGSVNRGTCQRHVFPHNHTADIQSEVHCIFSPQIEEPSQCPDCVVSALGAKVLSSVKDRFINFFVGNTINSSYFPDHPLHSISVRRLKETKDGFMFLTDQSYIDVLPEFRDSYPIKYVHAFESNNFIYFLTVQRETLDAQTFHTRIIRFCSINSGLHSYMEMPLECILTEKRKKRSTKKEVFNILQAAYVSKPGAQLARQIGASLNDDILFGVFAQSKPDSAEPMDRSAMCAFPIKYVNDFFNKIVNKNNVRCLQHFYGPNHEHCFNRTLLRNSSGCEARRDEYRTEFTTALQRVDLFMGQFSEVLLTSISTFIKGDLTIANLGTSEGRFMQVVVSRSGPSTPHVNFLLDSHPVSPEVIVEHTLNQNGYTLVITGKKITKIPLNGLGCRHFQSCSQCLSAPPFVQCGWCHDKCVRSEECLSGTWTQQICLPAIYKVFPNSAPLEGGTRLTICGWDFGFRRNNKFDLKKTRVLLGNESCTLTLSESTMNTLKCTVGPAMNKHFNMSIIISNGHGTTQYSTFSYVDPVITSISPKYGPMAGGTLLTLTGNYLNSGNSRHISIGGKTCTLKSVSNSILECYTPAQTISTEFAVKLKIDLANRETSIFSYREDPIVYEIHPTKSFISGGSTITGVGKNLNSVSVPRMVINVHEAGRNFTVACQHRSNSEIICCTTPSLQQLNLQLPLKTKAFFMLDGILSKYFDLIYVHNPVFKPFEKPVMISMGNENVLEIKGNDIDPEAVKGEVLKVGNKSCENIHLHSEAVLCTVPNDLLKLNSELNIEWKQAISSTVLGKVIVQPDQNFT
Experimental for HepG2 cell: HepG2 cells (Chinese Academy of Sciences cell bank, Cat # TCHu 72) were cultivated in EMEM complete medium containing 10% FBS, and MKN45 cells were cultivated in RPMI1640 complete medium containing 10% FBS. Trypsinization was performed for 2-3 min by adding 2-3 ml trypsin, 10-15 ml complete medium was added to elute the trypsinized cells when the trypsinization was complete, and the cells were centrifuged at 1000 rpm for 3 min. The supernatant was discarded, 10-20 ml complete medium was added to resuspend the cells to obtain a single cell suspension, and the cell density was adjusted to 4×10^4 cells/ml. 0.1 ml of the above cell suspension was added to each well of a 96-well cell culture plate and cultivated in an incubator at 37° C. in 5% CO2. […] Detection was performed according to the instructions of CellTiter-Glo® Luminescent Cell Viability Assay kit (Promega, Cat # G7571). The chemiluminescence was measured by a microplate reader (VICTOR 3, PerkinElmer), and the result was analyzed by GraphPad Prism (version 5.0) software.

Turning to `CC[C@H](C)[C@@H]([C@@H](CC(=O)N1CCC[C@H]1[C@H](OC)[C@@H](C)C(=O)N[C@@H](Cc1ccccc1)C(=O)O)OC)N(C)C(=O)[C@@H](NC(=O)[C@@H](NC)C(C)C)C(C)C` [MMAF, reference compound] (H-[NMeV]V[Dil][Dolaproine]F-OH), the figures for the IC50 in the experiment on MKN45 cell and in the experiment with HepG2 cell (ND: No activity was detected) were 0.85 nM and 4.88 nM, respectively. As to `CC[C@H](C)[C@@H]([C@@H](CC(=O)N1[C@H]2C[C@H]2C[C@H]1[C@H](OC)[C@@H](C)C(=O)N[C@@H](Cc1ccccc1F)C(=O)O)OC)N(C)C(=O)[C@@H](NC(=O)[C@@H](NC)C(C)C)C(C)C` [12 g, (S)-2-((2R,3R)-3-((1S,3S,5S)-2-((3R,4S,5S)-4-((S)—N,3-dimethyl-2-((S)-3-methyl-2-(methylamino)butyramide)butyramide)-3-methoxy-5-methylheptanoyl)-2-azabicyclo[3.1.0]hexane-3-yl)-3-methoxy-2-methylpropanamido)-3-(2-fluorophenyl)propionic acid] (H-[NMeV]V[Dil][X1][Phe(2-F)]-OH), the IC50 was determined as 79.4 nM in the experiment with MKN45 cell (Homo sapiens, MKN-45) and 401 nM in the experiment on HepG2 cell (Homo sapiens, HepG2, ND: No activity was detected). `CC[C@H](C)C([C@@H](CC(=O)N1CCC[C@H]1[C@H](OC)[C@@H](C)C(=O)N[C@H](C)[C@@H](O)c1ccccc1)OC)N(C)C(=O)[C@@H](NC(=O)[C@@H](NC)C(C)C)C(C)C` (stereo partly shown) [MMAE, Monomethyl aurantatin E]: in experiment [1], the “inhibitory activities against a variety of human tumor cell lines” value is “less than one nanomolar”.

B1: Ab-5: mouse hybridoma cell monoclonal antibody; heavy chain variable region SEQ ID NO: 4, light chain variable region SEQ ID NO: 5 (antibody, V domains shown)
VH: QVQLKQSGPGLVQPSQSLSITCTVSGFSLPNYGVHWVRQSPGKGLEWLGVIWSGGSTNYAAAFVSRLRISKDNSKSQVFFEMNSLQADDTAVYYCARNHDNPYNYAMDYWGQGTTVTVSS
VL: DIVLTQSPGSLAVYLGQRATISCRANKSVSTSTYNYLHWYQQKPGQPPKLLIYLASNLASGVPARFSGSGSGTDFTLNIHPLEEEDAATYYCQHSRDLPPTFGAGTKLELKR
modifications: Murine
For the molecule B1, in the experiment with human c-Met-His, the “Detection Results (OD450)” value was found to be 1.64. For the same molecule, the “MKN45 inhibition percentage (%)” value in the experiment with MKN45 cells came out at 77.4%.
